How the values were obtained:
[1] = Apparent permeability in pig LLC-PK1 cells; assay type: ADME, cell-based, Sus scrofa
[2] = biological target: T1, Orexin/Hypocretin receptor type 1 (Homo sapiens, UniProt O43613); assay: Displacement of [125I]Orexin A from recombinant human OX1R expressed in CHO-S cells by radioligand competition binding assay; assay type: cell-based
T1 sequence (O43613 whole entry): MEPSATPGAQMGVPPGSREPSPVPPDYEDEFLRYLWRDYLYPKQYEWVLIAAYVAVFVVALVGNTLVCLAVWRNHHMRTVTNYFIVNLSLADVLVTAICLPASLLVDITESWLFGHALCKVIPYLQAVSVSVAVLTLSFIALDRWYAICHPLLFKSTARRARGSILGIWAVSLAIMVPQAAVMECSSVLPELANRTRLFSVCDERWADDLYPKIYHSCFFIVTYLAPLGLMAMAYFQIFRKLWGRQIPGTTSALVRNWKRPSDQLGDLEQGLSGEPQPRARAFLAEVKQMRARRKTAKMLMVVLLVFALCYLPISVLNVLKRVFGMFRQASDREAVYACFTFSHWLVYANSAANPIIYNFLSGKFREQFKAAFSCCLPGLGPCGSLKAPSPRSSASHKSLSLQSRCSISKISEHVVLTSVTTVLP

[3] = biological target: T2, Orexin receptor type 2 (Homo sapiens, UniProt O43614); assay: Displacement of [125I]Orexin A from recombinant human OX2R expressed in CHO-S cells by radioligand competition binding assay; assay type: cell-based
T2 sequence (O43614 whole entry): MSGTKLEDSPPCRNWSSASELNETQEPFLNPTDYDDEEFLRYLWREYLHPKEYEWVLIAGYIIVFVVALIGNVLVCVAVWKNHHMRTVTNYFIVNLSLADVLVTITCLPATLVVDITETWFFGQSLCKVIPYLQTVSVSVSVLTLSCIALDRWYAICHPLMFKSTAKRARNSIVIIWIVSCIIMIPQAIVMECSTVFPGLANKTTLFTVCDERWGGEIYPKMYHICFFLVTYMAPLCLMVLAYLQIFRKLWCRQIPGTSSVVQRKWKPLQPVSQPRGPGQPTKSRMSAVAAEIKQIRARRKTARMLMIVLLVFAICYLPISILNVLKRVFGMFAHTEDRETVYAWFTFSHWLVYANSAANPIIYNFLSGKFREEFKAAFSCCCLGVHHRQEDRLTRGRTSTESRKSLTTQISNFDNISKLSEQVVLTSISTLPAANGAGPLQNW

[4] = species: Homo sapiens; assay: Selectivity ratio of IC50 for recombinant human OX2R expressed in CHO-S cells to IC50 for recombinant human OX1R expressed in CHO-S cells; assay type: cell-based; conditions: tested as the 11C-labelled form

## Cc1ccc(-n2nccn2)c(C(=O)N2CCN(c3nc4cc(Cl)ccc4o3)CC[C@H]2C)c1 [SUVOREXANT]
[1]
  Papp: 34.6 ×10⁻⁶ cm/s

## COc1ccnc(N2CCC3(CCN(Cc4cn([11CH3])c5ccccc45)C(=O)C3)CC2)n1
[2]
  IC50: 253 nM
[3]
  IC50: 1410 nM

## COc1ccnc(N2CCC3(CCN(Cc4cn(C)c5ccccc45)C(=O)C3)CC2)n1
[4]
  Ratio IC50: 5.6
